In PubChem BioAssay (NCI):
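Briefly, cells in 96-well plates were exposed to five compound concentrations for 48 h, and endpoints were estimated by linear interpolation. Definition used: TGI = concentration required for complete inhibition of growth.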

What was measured:
Assay in all cases: NCI tumour cell line growth inhibition, 48 h
SNB-78 CNS = tested on: SNB-78 CNS
DMS 273 small cell lung = tested on: DMS 273 small cell lung
LXFL 529 NSCLC = tested on: LXFL 529 NSCLC
DMS 114 small cell lung = tested on: DMS 114 small cell lung
HOP-18 NSCLC = tested on: HOP-18 NSCLC
KM20L2 colon = tested on: KM20L2 colon
XF 498 CNS = tested on: XF 498 CNS
M19-MEL melanoma = tested on: M19-MEL melanoma
RXF-631 renal = tested on: RXF-631 renal
P388 leukemia = tested on: P388 leukemia
SN12K1 renal = tested on: SN12K1 renal
P388/ADR leukemia = tested on: P388/ADR leukemia

Row | Compound | TGI (SNB-78 CNS) [µM] | TGI (DMS 273 small cell lung) [µM] | TGI (LXFL 529 NSCLC) [µM] | TGI (DMS 114 small cell lung) [µM] | TGI (HOP-18 NSCLC) [µM] | TGI (KM20L2 colon) [µM] | TGI (XF 498 CNS) [µM] | TGI (M19-MEL melanoma) [µM] | TGI (RXF-631 renal) [µM] | TGI (P388 leukemia) [µM] | TGI (SN12K1 renal) [µM] | TGI (P388/ADR leukemia) [µM]
1 | COc1cc(C(=O)NC2CCc3cc(OC)c(OC)c(OC)c3-c3ccc(OC)c(=O)cc32)cc(OC)c1OC (stereo unspecified) | > 100 | > 100 | 44.2 | 0.1 | > 100 | 0.326 | 16 | > 100 | – | – | – | –
2 | C[C@H]1C[C@@H]2[C@H]([C@@H](O)C[C@@]3(C)[C@H]2CC[C@]3(O)C(=O)CO)[C@@]2(C)C=CC(=O)C=C12 | – | > 100 | – | > 100 | > 100 | > 100 | – | > 100 | – | – | – | –
3 | COc1cc2c(c(OC)c1OC)-c1ccc(OC)c(=O)cc1C(NC(=O)COc1ccccc1)CC2 (stereo unspecified) | > 100 | > 100 | > 100 | < 0.01 | > 100 | < 0.01 | 65.8 | > 100 | > 100 | – | – | –
4 | C[C@@H]1C[C@H]2[C@@H]3CCC4=CC(=O)C=C[C@]4(C)[C@@]3(F)[C@@H](O)C[C@]2(C)[C@@]1(O)C(=O)CO | – | – | > 100 | > 100 | – | > 100 | – | > 100 | – | – | – | –
5 | CC(C)(C)[Si](OC1CCOC1=O)(c1ccccc1)c1ccccc1 (stereo unspecified) | > 100 | – | > 100 | – | 80.9 | 35.6 | 24.2 | 39.1 | 98.8 | – | – | –
6 | CNC(=O)OCc1nc(SC)n(C)c1CO | > 100 | > 100 | – | > 100 | > 100 | > 100 | > 100 | > 100 | – | > 100 | > 100 | > 100
7 | C[n+]1cccc(NC(=O)c2ccc(NC(=O)C34CCC(C(=O)Nc5ccc(C(=O)Nc6ccc[n+](C)c6)cc5)(CC3)CC4)cc2)c1 | > 100 | 25.9 | > 100 | > 100 | > 100 | > 100 | – | > 100 | – | – | – | –
8 | CC(=O)Oc1ccccc1 | – | > 100 | > 100 | > 100 | – | > 100 | – | > 100 | > 100 | – | – | –
